Reference: US7829114B2, “Capsules containing aqueous fill compositions stabilized with derivatized cyclodextrin” (CyDex Pharmaceuticals, Inc., priority 2002, dated 2010)
Blank lines part the entries; values can stand above or below the compound they belong to.

Experiments:
Format in all cases: physicochemical
[1] = Hard shell capsule stability in aqueous SBE-CD solutions; settings: hardcap
Procedure: (§1) Two types of hard shell capsules obtained from […] were evaluated. A conventional hard gelatin capsule (HCAP) and a hard HPMC (hydroxypropyl methylcellulose) capsule (VCAP) were evaluated under identical conditions using aqueous solutions differing in the concentration of SBE-CD (sulfobutyl ether cyclodextrin).

[2] = as above; settings: for failure time: vcap, monitoring discontinued after fourteen days; for content in fill composition for an HSIT rating of at least 3: SAE-CD, PVP and water fill, CAPSUGEL HPMC hard shell capsule
Procedure: as §1
In the absence of SBE or another shell-stabilizing material, these shell materials were unstable to erosion, dissolution, swelling and degradation by water. Under the conditions of the assay, SBE cyclodextrin was able to stabilize the VCAP shells for ≧14 days even at concentrations of ≧30% wt. of the fill composition. In this assay, monitoring was discontinued after fourteen days.

[3] = H.S.I.T. with SAE-CD, PVP and water fill compositions
Procedure: FIGS. 10a-10i depict ternary graphs correlating the concentration of SAE-CD, water and PVP in a fill composition to the H.S.I.T. rating of a soft shell capsule exposed to the fill composition. Aqueous fill solutions comprising differing amounts of PVP, SAE-CD and water were prepared. The stability tests were conducted as described below. The capsules described herein were used: SHIONOGI HGC (hard gelatin capsule) (FIG. 10A), […] HPMC hard shell capsule (FIG. 10b), SHIONOGI HPMC hard shell capsule (FIG. 10C), […] HGC (FIG. 10D), VEGAGEL hard shell capsule (FIG. 10E), hydrophilic fill-grade CARDINAL SGC (soft gelatin capsule) (FIG. 10f), lipophilic fill-grade CARDINAL SGC (FIG. 10g), hydrophilic fill-grade BANNER SGC (FIG. 10h), and lipophilic fill-grade BANNER SGC (FIG. 10i). No other shell-stabilizing material(s) was (were) included in the fill compositions evaluated. The results varied according to the capsule used. Stabilized aqueous fill composition-containing capsule formulations can be achieved with each capsule if one or more of the following fill compositions detailed below are used. • 1. Water comprises ≧55% of the fill composition, and the combination of SAE-CD, PVP, one or more optional excipients and one or more optional active agents comprises ≧45% of the fill composition; wherein SAE-CD can comprise up to 90% (85%, 83%, or 80%) of the weight of the fill composition, and PVP can comprise less than 90%, respectively, of the weight of the fill composition, provided that the fill composition comprises >≧35% PVP when SAE-CD comprises […]; ≦15% of the weight of the fill composition, and wherein both PVP (preferably water soluble or water swellable) and SAE-CD are present. • 2. Water comprises ≦45% of the fill composition, and the combination of SAE-CD, PVP, one or more optional excipients and one or more optional active agents comprises ≧55% of the fill composition; wherein SAE-CD can comprise up to 90% (85%, 83%, or 80%) of the weight of the fill composition, and PVP can comprise less than 90%, respectively, of the weight of the fill composition, provided that the fill composition comprises ≧35% PVP when SAE-CD comprises ≦20% of the weight of the fill composition, and wherein both PVP (preferably water soluble or water swellable) and SAE-CD are present. • 3. […]

[4] = Hard shell capsule stability in aqueous SBE-CD solutions; settings: SAE-CD, PVP and water fill; CAPSUGEL HGC
[5] = SHIONOGI HPMC hard shell capsule

Observations ([1]; 30% SBE solution): deformed/bends
failure time ([1]; 30% SBE solution): 24 h
size ([1]; 30% SBE solution): 2 × × length
Observations ([1]; 40% SBE solution): deformed/closed
failure time ([1]; 40% SBE solution): 48 h
size ([1]; 40% SBE solution): >2 × × width
Observations ([1]; 50% SBE solution): deformed/closed
failure time ([1]; 50% SBE solution): 48 h
size ([1]; 50% SBE solution): 2 × × width
Observations ([1]; 60% SBE solution): closed/stuck
failure time ([1]; 60% SBE solution): 96 h
size ([1]; 60% SBE solution): 2 × × width
failure time ([2]; 30% SBE solution): >14 days
failure time ([2]; 40% SBE solution): >14 days
failure time ([2]; 50% SBE solution): >14 days
failure time ([2]; 60% SBE solution): >14 days
time VCAP shells were stabilized ([2]; concentrations of ≧30% wt. of the fill composition): ≥ 14 days
Compound: sulfobutyl ether cyclodextrin [SAE-CD]
content in fill composition for an HSIT rating of at least 3 [2]: ≧6%
content in fill composition for an HSIT rating of at least 3 ([3]; SHIONOGI HGC): ≧6%
content in fill composition for an HSIT rating of at least 3 [3, 5]: ≧6%
content in fill composition for an HSIT rating of at least 3 [4]: ≧24%

Compound: O [Water]
content in fill composition for an HSIT rating of at least 3 [2]: ≦70%
content in fill composition for an HSIT rating of at least 3 ([3]; SHIONOGI HGC): ≦54%
content in fill composition for an HSIT rating of at least 3 [3, 5]: ≦60%
content in fill composition for an HSIT rating of at least 3 [4]: ≦36%
